Reference: PubChem BioAssay AID1963959 (Molecular Pharmacology Branch, DTP, NCI, 2024)
pIC50: −log10 of the molar value.

Test system: T-47D spheroids with HUVEC/MSC, viability
Assay: Anticancer human tumor T-47D cell line growth inhibition [PI3K];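 note: spheroids exposed to agents for seven days before reading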;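 for viability, T/C: percent of DMSO vehicle control luminescence so 100% = untreated growth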
Conditions: for viability, T/C: stronger effect = lower value
Outline: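 Agents were dosed from a top concentration near clinical Cmax (otherwise 10 microM) in half-log decrements, alone or combined with PI3K inhibitors. The spheroids contain tumor cells plus endothelial (HUVEC) and MSC stroma; viability is measured.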

[1] = curve of first compound, second compound 0.0316 µM
[2] = curve of first compound, second compound 0.1 µM
[3] = curve of first compound, second compound 0.316 µM
[4] = curve of first compound, second compound 1 µM
[5] = second compound 0.0316 µM, first compound 0.0316 µM
[6] = second compound 0.0316 µM, first compound 0.1 µM
[7] = second compound 0.0316 µM, first compound 0.316 µM
[8] = second compound 0.0316 µM, first compound 1 µM
[9] = second compound 0.0316 µM, first compound 3.16 µM
[10] = second compound 0.0316 µM, first compound 10 µM
[11] = second compound 0.1 µM, first compound 0.0316 µM
[12] = second compound 0.1 µM, first compound 0.1 µM
[13] = second compound 0.1 µM, first compound 0.316 µM
[14] = second compound 0.1 µM, first compound 1 µM
[15] = second compound 0.1 µM, first compound 3.16 µM
[16] = second compound 0.1 µM, first compound 10 µM
[17] = second compound 0.316 µM, first compound 0.0316 µM
[18] = second compound 0.316 µM, first compound 0.1 µM
[19] = second compound 0.316 µM, first compound 0.316 µM
[20] = second compound 0.316 µM, first compound 1 µM
[21] = second compound 0.316 µM, first compound 3.16 µM
[22] = second compound 0.316 µM, first compound 10 µM
[23] = second compound 1 µM, first compound 0.0316 µM
[24] = second compound 1 µM, first compound 0.1 µM
[25] = second compound 1 µM, first compound 0.316 µM
[26] = second compound 1 µM, first compound 1 µM
[27] = second compound 1 µM, first compound 3.16 µM
[28] = second compound 1 µM, first compound 10 µM
[29] = curve of first compound, second compound 3.16 µM
[30] = curve of first compound, second compound 10 µM
[31] = second compound 3.16 µM, first compound 0.0316 µM
[32] = second compound 3.16 µM, first compound 0.1 µM
[33] = second compound 10 µM, first compound 0.0316 µM
[34] = second compound 10 µM, first compound 0.1 µM

CC(C)NCC(C(=O)N1CCN(c2ncnc3c2C(C)CC3O)CC1)c1ccc(Cl)cc1 (stereo not drawn) + CC(Nc1ccc2c(c1)OCCn1cc(N3C(=O)OCC3C(F)F)nc1-2)C(N)=O
pIC50 (curve of first compound, second compound 0.00316 µM): 5.06
pIC50 (curve of first compound, second compound 0.01 µM): < 5.00
pIC50 [1]: < 5.00
pIC50 [2]: 5.41
pIC50 [3]: 5.62
pIC50 [4]: 7.20
viability, T/C (second compound 0.00316 µM, first compound 0.0316 µM): 109%
viability, T/C (second compound 0.00316 µM, first compound 0.1 µM): 96.1%
viability, T/C (second compound 0.00316 µM, first compound 0.316 µM): 82.7%
viability, T/C (second compound 0.00316 µM, first compound 1 µM): 80.5%
viability, T/C (second compound 0.00316 µM, first compound 3.16 µM): 60.5%
viability, T/C (second compound 0.00316 µM, first compound 10 µM): 48%
viability, T/C (second compound 0.01 µM, first compound 0.0316 µM): 94.5%
viability, T/C (second compound 0.01 µM, first compound 0.1 µM): 94.2%
viability, T/C (second compound 0.01 µM, first compound 0.316 µM): 91%
viability, T/C (second compound 0.01 µM, first compound 1 µM): 73.6%
viability, T/C (second compound 0.01 µM, first compound 3.16 µM): 66.6%
viability, T/C (second compound 0.01 µM, first compound 10 µM): 59%
viability, T/C [5]: 102%
viability, T/C [6]: 95.5%
viability, T/C [7]: 84.7%
viability, T/C [8]: 68.5%
viability, T/C [9]: 53.7%
viability, T/C [10]: 51.6%
viability, T/C [11]: 94.1%
viability, T/C [12]: 81.2%
viability, T/C [13]: 75.7%
viability, T/C [14]: 59.3%
viability, T/C [15]: 51.8%
viability, T/C [16]: 43.6%
viability, T/C [17]: 63.2%
viability, T/C [18]: 64%
viability, T/C [19]: 56.7%
viability, T/C [20]: 53.5%
viability, T/C [21]: 50.1%
viability, T/C [22]: 41.6%
viability, T/C [23]: 51.7%
viability, T/C [24]: 46.8%
viability, T/C [25]: 52.2%
viability, T/C [26]: 41.4%
viability, T/C [27]: 42.3%
viability, T/C [28]: 44.3%

CNC(=O)c1ccc(N2C(=S)N(c3ccc(C#N)c(C(F)(F)F)c3)C(=O)C2(C)C)cc1F + CC(Nc1ncnc2nc[nH]c12)c1cc2cccc(Cl)c2c(=O)n1-c1ccccc1
pIC50 [1]: < 5.00
pIC50 [2]: < 5.00
pIC50 [3]: < 5.00
pIC50 [4]: < 5.00
pIC50 [29]: < 5.00
pIC50 [30]: < 5.00
viability, T/C [5]: 117%
viability, T/C [6]: 108%
viability, T/C [7]: 96.2%
viability, T/C [8]: 85.9%
viability, T/C [9]: 97.1%
viability, T/C [10]: 79.6%
viability, T/C [11]: 101%
viability, T/C [12]: 85.4%
viability, T/C [13]: 114%
viability, T/C [14]: 99.9%
viability, T/C [15]: 95.4%
viability, T/C [16]: 80.2%
viability, T/C [17]: 89%
viability, T/C [18]: 88%
viability, T/C [19]: 84.2%
viability, T/C [20]: 80.7%
viability, T/C [21]: 92.3%
viability, T/C [22]: 86.5%
viability, T/C [23]: 93.7%
viability, T/C [24]: 87.5%
viability, T/C [25]: 78.1%
viability, T/C [26]: 86%
viability, T/C [27]: 91.7%
viability, T/C [28]: 76.9%
viability, T/C [31]: 88.5%
viability, T/C [32]: 76.4%
viability, T/C (second compound 3.16 µM, first compound 0.316 µM): 86%
viability, T/C (second compound 3.16 µM, first compound 1 µM): 85.5%
viability, T/C (second compound 3.16 µM, first compound 3.16 µM): 95.2%
viability, T/C (second compound 3.16 µM, first compound 10 µM): 94%
viability, T/C [33]: 96.8%
viability, T/C [34]: 90.9%
viability, T/C (second compound 10 µM, first compound 0.316 µM): 84.3%
viability, T/C (second compound 10 µM, first compound 1 µM): 84.1%
viability, T/C (second compound 10 µM, first compound 3.16 µM): 98.3%
viability, T/C (second compound 10 µM, first compound 10 µM): 88.7%

Cn1ncnc1[C@H]1c2n[nH]c(=O)c3cc(F)cc(c23)N[C@@H]1c1ccc(F)cc1 + Cc1nc(NC(=O)N2CCCC2C(N)=O)sc1-c1ccnc(C(C)(C)C(F)(F)F)c1
pIC50 [1]: < 7.00
pIC50 [2]: < 7.00
pIC50 [3]: < 7.00
pIC50 [4]: < 7.00
pIC50 [29]: < 7.00
pIC50 [30]: > 9.50
viability, T/C (second compound 0.0316 µM, first compound 0.000316 µM): 105%
viability, T/C (second compound 0.0316 µM, first compound 0.001 µM): 103%
viability, T/C (second compound 0.0316 µM, first compound 0.00316 µM): 99%
viability, T/C (second compound 0.0316 µM, first compound 0.01 µM): 99.9%
viability, T/C [5]: 86.8%
viability, T/C [6]: 98.8%
viability, T/C (second compound 0.1 µM, first compound 0.000316 µM): 106%
viability, T/C (second compound 0.1 µM, first compound 0.001 µM): 96.3%
viability, T/C (second compound 0.1 µM, first compound 0.00316 µM): 95.5%
viability, T/C (second compound 0.1 µM, first compound 0.01 µM): 106%
viability, T/C [11]: 99.5%
viability, T/C [12]: 86.7%
viability, T/C (second compound 0.316 µM, first compound 0.000316 µM): 105%
viability, T/C (second compound 0.316 µM, first compound 0.001 µM): 97.5%
viability, T/C (second compound 0.316 µM, first compound 0.00316 µM): 105%
viability, T/C (second compound 0.316 µM, first compound 0.01 µM): 87%
viability, T/C [17]: 94.5%
viability, T/C [18]: 86.5%
viability, T/C (second compound 1 µM, first compound 0.000316 µM): 101%
viability, T/C (second compound 1 µM, first compound 0.001 µM): 89.3%
viability, T/C (second compound 1 µM, first compound 0.00316 µM): 85.1%
viability, T/C (second compound 1 µM, first compound 0.01 µM): 89.4%
viability, T/C [23]: 87.7%
viability, T/C [24]: 90.5%
viability, T/C (second compound 3.16 µM, first compound 0.000316 µM): 65.1%
viability, T/C (second compound 3.16 µM, first compound 0.001 µM): 70.8%
viability, T/C (second compound 3.16 µM, first compound 0.00316 µM): 63.4%
viability, T/C (second compound 3.16 µM, first compound 0.01 µM): 63.6%
viability, T/C [31]: 71.5%
viability, T/C [32]: 69.2%
viability, T/C (second compound 10 µM, first compound 0.000316 µM): 39%
viability, T/C (second compound 10 µM, first compound 0.001 µM): 34.8%
viability, T/C (second compound 10 µM, first compound 0.00316 µM): 36.8%
viability, T/C (second compound 10 µM, first compound 0.01 µM): 34.1%
viability, T/C [33]: 32.9%
viability, T/C [34]: 38.9%

CNC(=O)c1ccc(N2C(=S)N(c3ccc(C#N)c(C(F)(F)F)c3)C(=O)C2(C)C)cc1F
viability, T/C (compound 0.0316 µM): 106% [middle of 4 runs]
viability, T/C (compound 0.1 µM): 95.9% [middle of 4 runs]
viability, T/C (compound 0.316 µM): 105% [middle of 4 runs]
viability, T/C (compound 1 µM): 108% [middle of 4 runs]
viability, T/C (compound 3.16 µM): 91.4% [middle of 4 runs]
viability, T/C (compound 10 µM): 89.3% [middle of 4 runs]
pIC50 (curve of compound): < 5.00
